The values below come from ChEMBL document CHEMBL1131038, “Derivatives of the triazoloquinazoline adenosine antagonist (CGS 15943) having high potency at the human A2B and A3 receptor subtypes” (J Med Chem, 1998).

The target of assay [1] is T1, Adenosine receptor A2b (Homo sapiens) (UniProt P29275).
T1 sequence (whole entry): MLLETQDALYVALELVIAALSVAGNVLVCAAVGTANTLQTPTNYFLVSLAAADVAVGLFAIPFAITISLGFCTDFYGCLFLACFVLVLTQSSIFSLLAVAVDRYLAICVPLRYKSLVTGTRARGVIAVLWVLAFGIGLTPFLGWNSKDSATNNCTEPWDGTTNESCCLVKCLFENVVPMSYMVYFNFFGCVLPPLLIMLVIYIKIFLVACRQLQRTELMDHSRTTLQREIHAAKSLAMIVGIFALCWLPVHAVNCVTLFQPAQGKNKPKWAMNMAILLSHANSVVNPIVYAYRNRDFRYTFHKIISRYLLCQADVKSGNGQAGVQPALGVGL
Description: Inhibition at 50 uM on cAMP production induced by 50 uM 5`-(N-ethylcarboxamido)adenosine in CHO cell line transfected with human Adenosine A2B receptor cDNA. The assay is classed as cell-based.

Assay [2] in a line: Ratio against rat A1 receptor and Human A3 receptor.
A short description of assay [3]: Ratio against rat A2A receptor and Human A3 receptor.
Assay [4] concerns the target T2, Adenosine receptor A2b (Homo sapiens, UniProt P29275).
T2 sequence (P29275 whole entry): T1 sequence (whole entry)
Description: pA2 value at human Adenosine A2B receptor from Schild plots with slopes approaching unity. As to conditions: read-out: pA2 (converted).

The target of assay [5] is Adenosine receptor A2a (Rattus norvegicus, UniProt P30543). The assay is described as follows: Binding affinity was determined in radioligand binding assay at rat striatal Adenosine A2A receptor vs [3H]-CGS- 21680.
Sequence of Adenosine receptor A2a (P30543 whole entry): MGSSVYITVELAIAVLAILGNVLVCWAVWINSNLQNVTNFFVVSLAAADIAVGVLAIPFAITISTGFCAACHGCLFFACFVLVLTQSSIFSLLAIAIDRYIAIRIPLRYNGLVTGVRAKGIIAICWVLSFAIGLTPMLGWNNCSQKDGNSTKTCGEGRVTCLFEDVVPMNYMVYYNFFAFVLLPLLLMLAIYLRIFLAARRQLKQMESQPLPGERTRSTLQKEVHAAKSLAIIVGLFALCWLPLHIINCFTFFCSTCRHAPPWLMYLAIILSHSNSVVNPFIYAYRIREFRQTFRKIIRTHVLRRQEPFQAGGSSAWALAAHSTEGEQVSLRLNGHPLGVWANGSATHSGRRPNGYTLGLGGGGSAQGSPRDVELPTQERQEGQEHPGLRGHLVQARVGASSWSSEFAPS
The target of assay [6] is T3, Adenosine receptor A1 (Rattus norvegicus, UniProt P25099).
T3 sequence (P25099 whole entry): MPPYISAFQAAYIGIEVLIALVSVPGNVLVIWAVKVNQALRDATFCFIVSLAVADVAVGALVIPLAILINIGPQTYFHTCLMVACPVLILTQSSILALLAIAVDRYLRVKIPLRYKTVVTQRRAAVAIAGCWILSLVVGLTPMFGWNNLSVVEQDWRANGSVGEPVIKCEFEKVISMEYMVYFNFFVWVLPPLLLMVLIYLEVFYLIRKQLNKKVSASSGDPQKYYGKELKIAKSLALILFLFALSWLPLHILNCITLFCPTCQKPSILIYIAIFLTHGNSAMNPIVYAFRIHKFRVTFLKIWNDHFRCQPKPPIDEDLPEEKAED
Description: Binding affinity was determined in radioligand binding assay at rat brain adenosine A1 receptor vs [3H]R-PIA

Assay [7] addresses T2, Adenosine receptor A2b. Description: Inhibition of 50 uM 5`-(N-ethylcarboxamido)adenosine induced cAMP production in CHO cell line expressing human Adenosine A2B receptor. The class given is cell-based. (cAMP levels reflect the balance of adenylyl cyclase and phosphodiesterase activity.)
In assay [8] the target is T4, Adenosine receptor A3 (Homo sapiens, UniProt P0DMS8).
T4 sequence (P0DMS8 whole entry): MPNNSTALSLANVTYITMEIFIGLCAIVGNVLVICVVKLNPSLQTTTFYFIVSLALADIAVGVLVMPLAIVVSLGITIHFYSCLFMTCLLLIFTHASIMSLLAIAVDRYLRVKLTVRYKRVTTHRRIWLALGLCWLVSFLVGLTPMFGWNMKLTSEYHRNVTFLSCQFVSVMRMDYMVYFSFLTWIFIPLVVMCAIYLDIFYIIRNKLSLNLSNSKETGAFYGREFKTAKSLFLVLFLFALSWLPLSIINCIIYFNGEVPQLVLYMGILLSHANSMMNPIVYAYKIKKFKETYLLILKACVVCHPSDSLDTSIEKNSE
Description: biochemical.
Description: Binding affinity at cloned human adenosine A3 receptor expressed in HEK293 cells was determined using [125I]AB-MECA as radioligand

In assay [9] the target is T2, Adenosine receptor A2b. The assay is described as follows: Inhibition of 50 uM 5`-(N-ethylcarboxamido)adenosine induced cAMP production in CHO cell line expressing human Adenosine A2B receptor at 50 uM. The assay is classed as functional, cell-based.

Take `NCCCC(=O)Nc1nc2ccc(Cl)cc2c2nc(-c3ccco3)nn12`: in [1], the inhibition was 100%. The Selectivity ratio in assay [2] was 0.11; in assay [3] it was 0.017. For the same molecule, the Kb in assay [4] was 10 nM. In addition, the Ki in assay [5] turned out to be 1.38 nM; in assay [6], 8.75 nM. Further, the 50% inhibitory concentration (IC50) in assay [7] was found to be 270 nM.

For `CC(C)(C)OC(=O)Nc1nc2ccc(Cl)cc2c2nc(-c3ccco3)nn12`, the inhibition in assay [1] turned out to be 92%. The same molecule registered an IC50 in assay [7] of 2410 nM.

`NCCCCC(=O)Nc1nc2ccc(Cl)cc2c2nc(-c3ccco3)nn12` returned an inhibition in assay [1] of 100%. The Ki in assay [8] worked out at 57.9 nM; in [5], 1.13 nM; in assay [6], 6.99 nM. In addition, the results for the Selectivity ratio in assay [2] and in assay [3] were 0.12 and 0.02, respectively. The 50% inhibitory concentration (IC50) in assay [7] was determined as 1770 nM.

In turn, `CC(C)(C)C(=O)Nc1nc2ccc(Cl)cc2c2nc(-c3ccco3)nn12` registered an inhibition in assay [1] of 89%. This molecule yielded an IC50 in assay [7] of 2400 nM.

As for `O=C(/C=C/c1ccccc1)Nc1nc2ccc(Cl)cc2c2nc(-c3ccco3)nn12`, the inhibition in assay [1] is 38%. The Ki in [8] is 72.1 nM; in [5], 59.8 nM; in assay [6], 282 nM. Besides, the figures for the Selectivity ratio in assay [2] and in assay [3] were 3.9 and 0.71, respectively.

`O=C(Cc1ccc(I)cc1)Nc1nc2ccc(Cl)cc2c2nc(-c3ccco3)nn12`: in assay [1], the inhibition was 42%. Besides, the Ki was found to be 62.9 nM in assay [8], 9.93 nM in assay [5] and 13.8 nM in [6]. Besides, the results for the Selectivity ratio in [2] and in assay [3] were 0.22 and 0.16, respectively.

For `O=C(O)CCCC(=O)Nc1nc2ccc(Cl)cc2c2nc(-c3ccco3)nn12`, the results for the Ki in [8], in assay [5] and in [6] were 81.3 nM, 1.15 nM and 45 nM, respectively. The Selectivity ratio in [2] was determined as 0.55; in [3], 0.014. This molecule also gave an IC50 in [9] of 1900 nM.

In the case of `NCCC(=O)Nc1nc2ccc(Cl)cc2c2nc(-c3ccco3)nn12`, the inhibition in assay [1] turned out to be 83%. Besides, the inhibition constant Ki came out at 874 nM in assay [8], 7.58 nM in [5] and 89.8 nM in assay [6]. Besides, the Selectivity ratio turned out to be 0.1 in assay [2] and 0.0088 in assay [3]. In assay [7], the IC50 came to 13300 nM.

The molecule `Nc1ccc(CC(=O)Nc2nc3ccc(Cl)cc3c3nc(-c4ccco4)nn23)cc1` registered an inhibition in assay [1] of 90%. Moreover, the Ki in [8] worked out at 3.56 nM. The molecule also gave a concentration for half-maximal inhibition (IC50) in assay [7] of 7400 nM.

`CC(=O)Nc1nc2ccc(Cl)cc2c2nc(-c3ccco3)nn12`: the inhibition in [1] was found to be 92%. In addition, half-maximal inhibition in assay [7] (IC50) was put at 2650 nM.

Turning to `NCCCCCC(=O)Nc1nc2ccc(Cl)cc2c2nc(-c3ccco3)nn12`, in assay [1], the inhibition worked out at 79%. Moreover, the figures for the Ki in assay [8], in [5] and in [6] were 213 nM, 10.3 nM and 99.6 nM, respectively. Besides, the values for the Selectivity ratio in [2] and in assay [3] were 0.47 and 0.048, respectively.

Broadly, the inhibition is the drop in the measured response relative to a control, in per cent. A high value points to strong suppression. The term Ki denotes a measure of affinity in units of concentration, obtained from inhibition or displacement. A word on the IC50: it is the concentration at which inhibition is half-maximal. A high value points to lower potency.
